From PMC6631993, “Investigation of the Binding Affinity of a Broad Array of L-Fucosides with Six Fucose-Specific Lectins of Bacterial and Fungal Origin” (Molecules, 2019)
Read-outs that look alike come from different tables or passages of the source.

Legend:
[1] = molecular target: T1, AOL (Aspergillus oryzae, UniProt Q2UNX8); experiment: hemagglutination inhibition, microscope detection; type: biochemical; settings: PBS, room temperature, lectin 0.05 mg/mL
T1 construct: gene fleA; purchased freeze-dried (TCI); dimer
T1 sequence (Q2UNX8 1-311): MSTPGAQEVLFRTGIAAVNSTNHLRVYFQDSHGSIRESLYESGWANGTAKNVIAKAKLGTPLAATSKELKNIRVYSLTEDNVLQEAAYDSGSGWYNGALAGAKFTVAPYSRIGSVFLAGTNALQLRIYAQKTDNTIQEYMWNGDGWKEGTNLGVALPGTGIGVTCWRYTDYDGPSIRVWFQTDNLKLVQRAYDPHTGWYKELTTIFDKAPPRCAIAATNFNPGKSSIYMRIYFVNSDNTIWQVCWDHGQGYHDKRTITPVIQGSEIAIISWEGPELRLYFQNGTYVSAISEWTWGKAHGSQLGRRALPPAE
Text: hemagglutination inhibition, microscope detection on AOL

[2] = molecular target: T2, AFL (Aspergillus fumigatus, UniProt Q4WW81); experiment: hemagglutination inhibition, microscope detection; type: biochemical; settings: PBS; room temperature; lectin 0.05 mg/mL; valency 1
T2 construct: gene fleA; dimer of six-bladed beta-propellers
T2 sequence (Q4WW81 whole entry): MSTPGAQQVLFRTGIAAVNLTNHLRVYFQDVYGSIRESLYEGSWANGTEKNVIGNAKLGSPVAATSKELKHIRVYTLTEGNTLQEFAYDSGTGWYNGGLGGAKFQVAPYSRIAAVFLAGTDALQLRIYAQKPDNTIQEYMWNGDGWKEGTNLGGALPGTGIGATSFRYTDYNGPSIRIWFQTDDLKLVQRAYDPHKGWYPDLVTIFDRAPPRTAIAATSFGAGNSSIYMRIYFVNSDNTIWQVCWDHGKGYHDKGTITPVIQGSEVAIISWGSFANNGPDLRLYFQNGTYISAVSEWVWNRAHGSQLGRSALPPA
Text: hemagglutination inhibition, microscope detection on AFL

[3] = molecular target: T3, AAL (Aleuria aurantia, UniProt P18891); experiment: hemagglutination inhibition, microscope detection; type: biochemical; settings: PBS, room temperature, lectin 0.05 mg/mL
T3 construct: purchased freeze-dried (Vector Laboratories); dimer
T3 sequence (P18891 2-313): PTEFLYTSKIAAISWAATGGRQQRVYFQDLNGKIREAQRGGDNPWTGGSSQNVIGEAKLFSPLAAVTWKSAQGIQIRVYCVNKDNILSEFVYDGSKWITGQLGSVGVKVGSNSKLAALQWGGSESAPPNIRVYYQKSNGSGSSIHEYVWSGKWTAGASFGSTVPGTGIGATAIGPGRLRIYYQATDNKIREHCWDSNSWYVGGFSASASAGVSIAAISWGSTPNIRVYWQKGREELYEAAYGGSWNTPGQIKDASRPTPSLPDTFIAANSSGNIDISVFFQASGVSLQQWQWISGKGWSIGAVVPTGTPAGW
Text: hemagglutination inhibition, microscope detection on AAL

[4] = molecular target: T4, BC2L-C (Burkholderia cenocepacia, UniProt B4EH86); experiment: hemagglutination inhibition, microscope detection; type: biochemical; settings: human 0+ papain-treated red blood cells, 20 mM Tris/HCl, 150 mM NaCl, 5 mM CaCl2, pH 7.5, room temperature, lectin 0.1 mg/mL, semi-quantitative
T4 construct: gene BCAM0185; recombinant in E. coli; D-mannose-agarose purified; N-terminal domain (fucose site) is a trimer
T4 sequence (B4EH86 entry or part of it): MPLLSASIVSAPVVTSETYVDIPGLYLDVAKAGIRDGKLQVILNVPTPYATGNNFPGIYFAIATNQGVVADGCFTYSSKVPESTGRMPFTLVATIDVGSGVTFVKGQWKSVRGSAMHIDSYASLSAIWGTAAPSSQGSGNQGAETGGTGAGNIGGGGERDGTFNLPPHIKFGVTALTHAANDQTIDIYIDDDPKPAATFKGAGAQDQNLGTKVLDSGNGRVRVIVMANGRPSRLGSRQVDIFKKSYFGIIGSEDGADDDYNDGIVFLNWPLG
Text: hemagglutination inhibition, microscope detection on BC2L-C

[5] = molecular target: T5, PA-IIL (LecB) (Pseudomonas aeruginosa, UniProt Q9HYN5); experiment: hemagglutination inhibition, microscope detection; type: biochemical; settings: 20 mM Tris/HCl, 150 mM NaCl, 5 mM CaCl2, pH 7.5, room temperature, lectin 1.25 mg/mL
T5 construct: recombinant in E. coli, D-mannose-agarose purified; homotetramer, two calcium ions per site
T5 sequence (Q9HYN5 entry or part of it): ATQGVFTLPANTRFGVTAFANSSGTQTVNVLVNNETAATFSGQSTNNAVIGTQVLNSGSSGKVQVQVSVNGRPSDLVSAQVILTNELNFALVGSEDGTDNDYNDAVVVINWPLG
Text: hemagglutination inhibition, microscope detection on PA-IIL (LecB)

[6] = molecular target: RSL (Ralstonia pseudosolanacearum, UniProt Q8XXK6); settings: PBS, room temperature, lectin 0.05 mg/mL

## C[C@@H]1O[C@@H](SCCO)[C@@H](O)[C@H](O)[C@@H]1O [compound 21, Compound 21]
[1]; valency 1
  RSL / Potency: 4 fold vs L-fucose
[2]
  AFL / Potency: 2 fold vs L-fucose
[3]; valency 1
  AFL / Potency: 2 fold vs L-fucose
[4]; valency 4 buffer and lectin concentration, valency 1
  RSL / Potency: 4 fold vs L-fucose
[5]; valency 1
  RSL / Potency: 4 fold vs L-fucose
[6]; valency 1
  RSL / Potency: 4 fold vs L-fucose

## C[C@@H]1O[C@@H](SCCS(=O)(=O)O)[C@@H](O)[C@H](O)[C@@H]1O [compound 22, Compound 22]
[4]; valency 4
  RSL / Potency: 4 fold vs L-fucose

## C[C@@H]1O[C@@H](OCc2cn(CCOCCOCCOCCn3cc(COCC(COCc4cn(CCOCCOCCOCCn5cc(CO[C@@H]6O[C@@H](C)[C@@H](O)[C@@H](O)[C@@H]6O)nn5)nn4)(COCc4cn(CCOCCOCCOCCn5cc(CO[C@@H]6O[C@@H](C)[C@@H](O)[C@@H](O)[C@@H]6O)nn5)nn4)COCc4cn(CCOCCOCCOCCn5cc(CO[C@@H]6O[C@@H](C)[C@@H](O)[C@@H](O)[C@@H]6O)nn5)nn4)nn3)nn2)[C@@H](O)[C@H](O)[C@@H]1O [compound 2, Compound 2]
[1]; 0+ papain-treated red blood cells, semi-quantitative, valency 4
  RSL / β^#: 256 fold vs L-fucose
[3]; valency 4
  AFL / Potency: 128 fold vs L-fucose
[4]; valency 4
  BC2L-C / Potency: 16 fold vs L-fucose
[5]; valency 4
  AFL / β^#: 32 fold vs L-fucose
[6]; valency 4
  RSL / Potency: 1024 fold vs L-fucose

## C[C@@H]1O[C@@H](OCc2cn(CCN=[N+]=[N-])nn2)[C@@H](O)[C@H](O)[C@@H]1O [compound 12, Compound 12]
[6]; valency 1
  RSL / Potency: 32 fold vs L-fucose

## C#CCO[C@@H]1O[C@@H](C)[C@@H](O)[C@@H](O)[C@@H]1O [compound 11, Compound 11]
[1]; valency 1
  AFL / Potency: 4 fold vs L-fucose
[2]
  AFL / Potency: 4 fold vs L-fucose
[3]; valency 1
  AFL / Potency: 4 fold vs L-fucose
[5]; valency 1
  AFL / Potency: 4 fold vs L-fucose
[6]; valency 1
  RSL / Potency: 8 fold vs L-fucose

## C[C@@H]1O[C@@H](OCc2cn(CCOCCOCCOCCn3cc(CO[C@@H]4O[C@@H](C)[C@@H](O)[C@@H](O)[C@@H]4O)nn3)nn2)[C@@H](O)[C@H](O)[C@@H]1O [compound 14, Compound 14]
[6]; valency 2
  RSL / Potency: 128 fold vs L-fucose
